Source: patent publication US8785457B2 (Cellzome Limited, priority 2009, dated 2014)
pIC50: −log10 of the molar value. Where two headings read alike, the source gives them in different places.

Key:
[1] = target: T1, PI3 Kbeta (PI3 Kb) (Homo sapiens, UniProt P42338); test: kinobeads assay, PI3Kbeta; assay type: binding
T1 construct: endogenous in cells; host or cells: cell lysate
Outline: (§1)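 Cell lysate aliquots are incubated with compound over a concentration range and with an affinity matrix of immobilized phenylmorpholin-chromen ligand. Beads are then removed, bound proteins eluted, and each kinase is quantified by multiplexed immunodetection to derive IC50 values.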

[2] = target: T2, mTOR (Homo sapiens, UniProt P42345); test: mTOR kinobeads assay (competitive binding in Jurkat cell lysate, immunodetection)
T2 construct: endogenous in cells; host or cells: Jurkat, clone E6-1 (ATCC TIB-152) cell lysate
Outline: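 IC50 derived from dose-response curves of mTOR captured on immobilized phenylmorpholin-chromen beads, detected by antibody dot blot with infrared fluorescence.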

[3] = target: T3, PI3Kalpha (PI3Ka) (Homo sapiens, UniProt P42336); test: kinobeads assay, PI3Kalpha; assay type: binding
T3 construct: endogenous in cells; host or cells: cell lysate
Outline: as §1

[4] = target: T4, PI3 Kgamma (PI3 Kg) (Homo sapiens, UniProt P48736); test: kinobeads assay, PI3Kgamma; assay type: binding
T4 construct: endogenous in cells; host or cells: cell lysate
Outline: as §1

[5] = kinobeads assay, Table 6, read-out: Inhibition values (IC50) PI3Kb
[6] = kinobeads assay, Table 4, read-out: Inhibition values (IC50) mTor
[7] = kinobeads assay, Table 6, read-out: Inhibition values (IC50) mTOR
[8] = kinobeads assay, Table 6, read-out: Inhibition values (IC50) PI3Kg
[9] = Further Kinobeads Data, read-out: PI3Kb
[10] = Further Kinobeads Data, read-out: mTor
[11] = Further Kinobeads Data, read-out: PI3Kg
[12] = Further Kinobeads Data, read-out: PI3Ka

T1 sequence (P42338 whole entry): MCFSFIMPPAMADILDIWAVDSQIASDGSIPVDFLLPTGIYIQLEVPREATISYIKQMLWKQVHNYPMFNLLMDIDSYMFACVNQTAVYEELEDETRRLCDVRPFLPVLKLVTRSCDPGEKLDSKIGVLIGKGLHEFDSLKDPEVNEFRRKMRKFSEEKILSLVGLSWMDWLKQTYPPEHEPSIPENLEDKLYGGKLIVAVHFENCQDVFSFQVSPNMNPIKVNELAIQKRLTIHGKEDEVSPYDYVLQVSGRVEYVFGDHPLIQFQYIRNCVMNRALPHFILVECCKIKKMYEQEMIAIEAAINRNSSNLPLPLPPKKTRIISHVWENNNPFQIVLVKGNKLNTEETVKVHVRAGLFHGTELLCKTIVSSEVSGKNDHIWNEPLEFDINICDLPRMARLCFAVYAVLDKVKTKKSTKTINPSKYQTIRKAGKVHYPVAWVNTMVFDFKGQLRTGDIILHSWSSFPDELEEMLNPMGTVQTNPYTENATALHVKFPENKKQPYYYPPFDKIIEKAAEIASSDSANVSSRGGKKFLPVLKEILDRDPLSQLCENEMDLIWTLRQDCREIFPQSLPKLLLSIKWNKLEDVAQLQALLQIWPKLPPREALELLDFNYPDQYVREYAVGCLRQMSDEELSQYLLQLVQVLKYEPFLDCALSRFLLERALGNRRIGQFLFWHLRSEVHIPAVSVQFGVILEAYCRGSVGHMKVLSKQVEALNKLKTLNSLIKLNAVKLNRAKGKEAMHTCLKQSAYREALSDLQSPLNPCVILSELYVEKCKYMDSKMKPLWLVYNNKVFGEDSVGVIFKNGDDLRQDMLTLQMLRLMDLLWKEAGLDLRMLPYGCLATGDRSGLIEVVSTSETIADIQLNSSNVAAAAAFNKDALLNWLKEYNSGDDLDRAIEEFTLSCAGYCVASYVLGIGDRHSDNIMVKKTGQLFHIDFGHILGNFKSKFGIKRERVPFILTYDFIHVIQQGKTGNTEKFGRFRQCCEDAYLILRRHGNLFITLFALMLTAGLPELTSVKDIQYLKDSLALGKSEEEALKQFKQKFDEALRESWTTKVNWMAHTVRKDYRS
T1 sequence (P27986 whole entry partner): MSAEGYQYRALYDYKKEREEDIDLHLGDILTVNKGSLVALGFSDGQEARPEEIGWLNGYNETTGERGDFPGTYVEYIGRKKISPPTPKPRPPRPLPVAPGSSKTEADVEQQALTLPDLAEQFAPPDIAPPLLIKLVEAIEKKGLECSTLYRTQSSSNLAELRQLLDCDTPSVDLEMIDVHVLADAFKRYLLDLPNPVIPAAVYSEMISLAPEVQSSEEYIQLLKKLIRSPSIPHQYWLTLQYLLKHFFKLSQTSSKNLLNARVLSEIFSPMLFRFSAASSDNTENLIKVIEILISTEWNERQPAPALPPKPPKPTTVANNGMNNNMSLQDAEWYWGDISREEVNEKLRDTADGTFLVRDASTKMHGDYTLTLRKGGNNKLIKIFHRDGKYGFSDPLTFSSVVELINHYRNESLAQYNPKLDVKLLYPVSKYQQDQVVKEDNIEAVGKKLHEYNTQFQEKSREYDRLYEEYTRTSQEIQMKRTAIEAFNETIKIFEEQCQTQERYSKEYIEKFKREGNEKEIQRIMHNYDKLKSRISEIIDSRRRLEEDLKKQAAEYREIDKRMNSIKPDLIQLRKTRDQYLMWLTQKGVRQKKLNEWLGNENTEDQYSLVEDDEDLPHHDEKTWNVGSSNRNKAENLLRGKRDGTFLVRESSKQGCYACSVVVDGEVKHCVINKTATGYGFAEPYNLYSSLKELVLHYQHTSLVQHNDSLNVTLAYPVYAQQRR
T3 sequence (P42336 whole entry): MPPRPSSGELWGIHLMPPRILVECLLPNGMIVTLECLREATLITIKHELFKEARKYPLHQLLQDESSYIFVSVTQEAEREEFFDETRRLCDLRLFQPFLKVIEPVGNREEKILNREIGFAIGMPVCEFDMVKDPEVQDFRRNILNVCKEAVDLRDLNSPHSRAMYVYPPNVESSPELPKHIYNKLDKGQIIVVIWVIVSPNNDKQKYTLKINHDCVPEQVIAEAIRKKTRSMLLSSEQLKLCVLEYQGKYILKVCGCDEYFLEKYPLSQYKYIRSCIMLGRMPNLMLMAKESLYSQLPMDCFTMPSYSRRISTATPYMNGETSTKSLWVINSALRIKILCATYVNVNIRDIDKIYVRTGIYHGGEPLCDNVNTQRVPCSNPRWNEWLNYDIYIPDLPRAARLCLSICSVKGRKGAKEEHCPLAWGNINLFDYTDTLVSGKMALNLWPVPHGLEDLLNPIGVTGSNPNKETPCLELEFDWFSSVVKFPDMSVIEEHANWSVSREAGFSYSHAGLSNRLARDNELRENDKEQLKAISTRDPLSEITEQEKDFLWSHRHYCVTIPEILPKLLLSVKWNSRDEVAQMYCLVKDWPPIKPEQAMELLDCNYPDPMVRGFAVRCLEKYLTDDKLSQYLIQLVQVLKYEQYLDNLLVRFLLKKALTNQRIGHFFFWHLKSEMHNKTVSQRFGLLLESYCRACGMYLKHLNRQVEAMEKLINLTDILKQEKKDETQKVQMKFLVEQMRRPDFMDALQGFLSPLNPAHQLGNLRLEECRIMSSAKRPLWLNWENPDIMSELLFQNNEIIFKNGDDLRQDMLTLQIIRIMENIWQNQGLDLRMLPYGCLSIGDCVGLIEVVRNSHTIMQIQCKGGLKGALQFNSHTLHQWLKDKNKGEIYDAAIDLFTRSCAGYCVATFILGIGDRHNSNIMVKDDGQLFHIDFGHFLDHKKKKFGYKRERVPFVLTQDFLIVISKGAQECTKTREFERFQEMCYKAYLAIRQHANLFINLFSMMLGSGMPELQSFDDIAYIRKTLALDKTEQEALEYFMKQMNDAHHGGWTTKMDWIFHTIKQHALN
T3 sequence (P27986 whole entry partner): as the sequence (P27986 whole entry partner) above
T4 sequence (P48736 whole entry): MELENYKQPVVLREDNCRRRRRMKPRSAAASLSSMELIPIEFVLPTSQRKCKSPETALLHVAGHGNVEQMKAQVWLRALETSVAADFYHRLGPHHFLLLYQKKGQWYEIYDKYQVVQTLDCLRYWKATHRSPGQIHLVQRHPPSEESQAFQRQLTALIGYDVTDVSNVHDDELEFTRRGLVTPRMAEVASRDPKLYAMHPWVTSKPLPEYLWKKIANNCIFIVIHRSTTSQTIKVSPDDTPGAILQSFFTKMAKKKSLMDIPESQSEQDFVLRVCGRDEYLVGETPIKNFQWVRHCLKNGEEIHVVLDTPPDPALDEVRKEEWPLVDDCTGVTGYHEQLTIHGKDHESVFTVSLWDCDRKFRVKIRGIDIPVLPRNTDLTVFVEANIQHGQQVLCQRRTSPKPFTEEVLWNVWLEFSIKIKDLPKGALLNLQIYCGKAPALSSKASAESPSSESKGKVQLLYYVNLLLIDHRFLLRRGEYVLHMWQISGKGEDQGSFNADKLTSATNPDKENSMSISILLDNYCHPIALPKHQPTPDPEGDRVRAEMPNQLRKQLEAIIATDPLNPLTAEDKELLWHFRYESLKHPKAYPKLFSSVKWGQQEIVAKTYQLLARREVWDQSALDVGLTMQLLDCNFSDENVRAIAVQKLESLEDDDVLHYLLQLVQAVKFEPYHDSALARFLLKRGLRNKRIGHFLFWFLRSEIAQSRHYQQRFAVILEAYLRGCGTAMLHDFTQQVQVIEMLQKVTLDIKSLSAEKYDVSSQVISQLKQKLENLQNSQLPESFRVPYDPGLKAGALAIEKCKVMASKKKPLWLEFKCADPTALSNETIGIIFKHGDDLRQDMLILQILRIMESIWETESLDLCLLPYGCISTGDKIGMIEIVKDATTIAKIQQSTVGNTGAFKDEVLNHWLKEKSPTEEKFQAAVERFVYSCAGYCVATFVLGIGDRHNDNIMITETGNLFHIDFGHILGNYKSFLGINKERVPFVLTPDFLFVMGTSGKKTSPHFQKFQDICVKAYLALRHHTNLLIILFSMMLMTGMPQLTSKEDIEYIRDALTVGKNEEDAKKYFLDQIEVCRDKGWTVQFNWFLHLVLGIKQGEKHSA

Compound | pIC50 [1, 5] | pIC50 [2, 6] | pIC50 [2, 7] | Inhibition values (IC50) PI3Ka ([3]; kinobeads assay, Table 6) | pIC50 [4, 8] | pIC50 [1, 9] | pIC50 [2, 10] | PI3Ka ([3]; Further Kinobeads Data) | pIC50 [4, 11] | pIC50 ([3]; kinobeads assay, Table 6, read-out: Inhibition values (IC50) PI3Ka) | pIC50 [3, 12]
CCNC(=O)Nc1ccc(-c2nc3c(c(N4CCOC[C@@H]4C)n2)CCN(CC2CC2)C3)cc1 [Example 37, (S)-1-(4-(7-(cyclopropylmethyl)-4-(3-methylmorpholino)-5,6,7,8-tetrahydropyrido[3,4-d]pyrimidin-2-yl)phenyl)-3-ethylurea] | < 5.00 | > 7.00 | > 7.00 | D (D >10 μM) | < 5.00 | – | – | – | – | – | –
CCOC(=O)N1Cc2nc(-c3ccc(NC(=O)NC4CC4)cc3)nc(N3CCOC[C@@H]3C)c2C1 [Example 34, (S)-ethyl 2-(4-(3-cyclopropylureido)phenyl)-4-(3-methylmorpholino)-5H-pyrrolo[3,4-d]pyrimidine-6(7H)-carboxylate] | < 5.00 | > 7.00 | > 7.00 | D (D >10 μM) | < 5.00 | – | – | – | – | – | –
CCNC(=O)Nc1ccc(-c2nc3c(c(N4CCOC[C@@H]4C)n2)CN(C(=O)C(C)C)C3)cc1 [Example 21, (S)-1-ethyl-3-(4-(6-isobutyryl-4-(3-methylmorpholino)-6,7-dihydro-5H-pyrrolo[3,4-d]pyrimidin-2-yl)phenyl)urea] | < 5.00 | > 7.00 | > 7.00 | – | < 5.00 | – | – | – | – | 5.00 to 6.00 | –
C[C@H]1COCCN1c1nc(-c2ccc(NC(=O)NC3CC3)cc2)nc2c1CN(CC(C)(C)C)C2 [Example 25, (S)-1-cyclopropyl-3-(4-(4-(3-methylmorpholino)-6-neopentyl-6,7-dihydro-5H-pyrrolo[3,4-d]pyrimidin-2-yl)phenyl)urea] | < 5.00 | 6.00 to 7.00 | 6.00 to 7.00 | D (D >10 μM) | < 5.00 | – | – | – | – | – | –
CCNC(=O)Nc1ccc(-c2nc3c(c(N4CCOC[C@@H]4C)n2)CN(Cc2ccc(F)cc2)C3)cc1 [Example 29, (S)-1-ethyl-3-(4-(6-(4-fluorobenzyl)-4-(3-methylmorpholino)-6,7-dihydro-5H-pyrrolo[3,4-d]pyrimidin-2-yl)phenyl)urea] | < 5.00 | 6.00 to 7.00 | 6.00 to 7.00 | D (D >10 μM) | < 5.00 | – | – | – | – | – | –
CN1Cc2nc(-c3ccc(NC(=O)NC4CC4)cc3F)nc(N3CCOCC3)c2C1 [Example 159, 1-(Cyclopropyl)-3-(3-fluoro-4-(6-methyl-4-morpholino-6,7-dihydro-5H-pyrrolo[3,4-d]pyrimidin-2-yl)phenyl)urea] | – | – | – | – | – | < 5.00 | 6.00 to 7.00 | – | < 5.00 | – | 5.00 to 6.00
CCOC(=O)N1Cc2nc(-c3ccc(NC(=O)NC4CC4)cc3F)nc(N3CCOCC3)c2C1 [Example 156, Ethyl 2-(4-(3-cyclopropylureido)-2-fluorophenyl)-4-morpholino-5H-pyrrolo[3,4-d]pyrimidine-6(7H)-carboxylate] | – | – | – | – | – | < 5.00 | > 7.00 | D (D >10 μM) | < 5.00 | – | –

Results, then the compound that gave them:

pIC50 [1, 5] | pIC50 [2, 6] | pIC50 [2, 7] | Inhibition values (IC50) PI3Ka ([3]; kinobeads assay, Table 6) | pIC50 [4, 8] | pIC50 [1, 9] | pIC50 [2, 10] | PI3Ka ([3]; Further Kinobeads Data) | pIC50 [4, 11] | pIC50 ([3]; kinobeads assay, Table 6, read-out: Inhibition values (IC50) PI3Ka) | pIC50 [3, 12] | Compound
– | – | – | – | – | < 5.00 | > 7.00 | D (D >10 μM) | < 5.00 | – | – | CC(C)NC(=O)N1CCc2c(nc(-c3ccc(NC(=O)NC4CC4)cc3F)nc2N2CCOC[C@@H]2C)C1 [Example 189, (S)-2-(4-(3-cyclopropylureido)-2-fluorophenyl)-N-isopropyl-4-(3-methylmorpholino)-5,6-dihydropyrido[3,4-d]pyrimidine-7(8H)-carboxamide]
– | – | – | – | – | < 5.00 | > 7.00 | D (D >10 μM) | < 5.00 | – | – | CC(C)N1Cc2nc(-c3ccc(NC(=O)NCCF)cc3F)nc(N3CCOC[C@@H]3C)c2C1 [Example 186, (S)-1-(3-fluoro-4-(6-isopropyl-4-(3-methylmorpholino)-6,7-dihydro-5H-pyrrolo[3,4-d]pyrimidin-2-yl)phenyl)-3-(2-fluoroethyl)urea]
– | – | – | – | – | 5.00 to 6.00 | > 7.00 | – | 5.00 to 6.00 | – | 5.00 to 6.00 | CCNC(=O)Nc1ccc(-c2nc3c(c(N4CCOC[C@@H]4C)n2)CCN(C(=O)N(C)C)C3)c(F)c1 [Example 176, (S)-2-(4-(3-ethylureido)-2-fluorophenyl)-N,N-dimethyl-4-(3-methylmorpholino)-5,6-dihydropyrido[3,4-d]pyrimidine-7(8H)-carboxamide]
– | – | – | – | – | < 5.00 | 6.00 to 7.00 | D (D >10 μM) | < 5.00 | – | – | COC(=O)N1Cc2nc(-c3ccc(NC(=O)NCCF)cc3F)nc(N3CCOC[C@@H]3C)c2C1 [Example 183, (S)-methyl 2-(2-fluoro-4-(3-(2-fluoroethyl)ureido)phenyl)-4-(3-methylmorpholino)-5H-pyrrolo[3,4-d]pyrimidine-6(7H)-carboxylate]
